According to US20230104487A1, “11-(4-CHLOROPHENYL)-4-(2,3-DIHYDRO-1H-INDOLE-1-CARBONYL)-3,11-DIMETHYL-5,10,DIOXATRICYCLO[7.4.0.0,2,6,]TRIDECA-1,3,6,8-TETRAEN-13-ONE AND DERIVATIVES AS DESTABILIZER OF CRY1 FOR THE TREATMENT OF CIRCADIAN RHYTHM ASSOCIATED DISEASES AND DISORDERS” (KOC UNIVERSITESI, priority 2019, published 2023):
Entries after “also recorded” stand apart in the source; their conditions may differ.

Assays:
Per2 = Per2 mRNA in mouse liver (qPCR); format: in vivo; settings: 25 and 50 mg/kg i.p., 6 h
Description: FIGS. 5A-5G are an illustration of FORMULA I decreased the nuclear CRY1 in mice liver. FORMULA I (25 mg/kg or 50 mg/kg) or vehicle intraperitoneally administered to C57BL/6J mice. 6 h after the treated mice were sacrificed (n=3). […] FIGS. 5A-5B show an effect of FORMULA I in WCL. FIG. 5C-5D show an effect of FORMULA I in cytosolic fraction. FIGS. 5E-5F show an effect of FORMULA I in nuclear fraction of muce liver. […] (Data represent the mean±SEM, n=3 (with duplicates in RT-PCR) *: p<0.05 versus control by student t-test).
QIAGEN RNeasy Mini Kit was used to isolate the mRNA. Protocol provided by the manufacturer was followed. On-column DNase treatment was performed with the DNase enzyme provided with the kit. […] Quantity of RNA was determined by Nanodrop 2000 (Thermo Scientific). […] For quantitative real time PCR (qRT-PCR) analysis cDNAs were further diluted 5-fold (1:5). mRNA expression levels were calculated by qRT-PCR with the SYBR Green. […] 10 seconds denaturation, 57 to 62° C. for 20 seconds annealing (the degree is determined by primer type) and 72° C. for 30 seconds of elongation, 35 cycles. […]
Since CRYs are stabilized and degraded differently in cytosolic and nuclear compartments, we further analyzed the level of CRY1 in the cytosolic and nuclear fraction of the mouse liver. […]

CRY1 = target: T1, CRY1 (Mus musculus, UniProt P97784); assay: Pull-down assay with biotinylated molecule, CRY1-HIS-MYC; format: binding; settings: 50 μM bFORMULA I, 100 μM FORMULA I competitor
T1 sequence (P97784 1-606): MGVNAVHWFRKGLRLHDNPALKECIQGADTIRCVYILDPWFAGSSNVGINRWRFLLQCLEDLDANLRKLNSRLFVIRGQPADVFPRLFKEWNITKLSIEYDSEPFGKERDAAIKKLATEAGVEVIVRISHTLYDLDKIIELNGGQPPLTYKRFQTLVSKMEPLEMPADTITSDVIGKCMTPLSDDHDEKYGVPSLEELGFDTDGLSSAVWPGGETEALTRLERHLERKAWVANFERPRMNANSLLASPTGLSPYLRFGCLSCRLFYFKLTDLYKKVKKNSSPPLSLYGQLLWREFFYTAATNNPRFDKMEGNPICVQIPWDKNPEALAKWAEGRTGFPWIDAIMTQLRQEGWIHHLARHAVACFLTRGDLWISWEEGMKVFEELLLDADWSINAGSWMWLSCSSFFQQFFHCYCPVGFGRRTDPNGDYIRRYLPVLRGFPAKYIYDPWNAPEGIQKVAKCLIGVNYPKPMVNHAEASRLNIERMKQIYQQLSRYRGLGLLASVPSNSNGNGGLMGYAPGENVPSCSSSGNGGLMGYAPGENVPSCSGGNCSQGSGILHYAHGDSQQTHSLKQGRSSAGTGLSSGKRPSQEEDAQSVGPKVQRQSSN
Description: 10 μg of Cry1-pcDNA4, Cry2-pcDNA4 or Cry1-T5-pcDNA4 plasmids expressing His and Myc at the C-terminal of CRYs were transfected to HEK293T cell. After 48 h of transfection cells were harvested and lysed in lysis buffer (50 mM Tris pH 7.4, 2 mM EDTA, 1 mM MgCl2, 0.2% NP-40 (v/v), 0.1% sodium deoxycholate (w/v), 1 mM sodium orthovanadate, 1 mM sodium fluoride, and protease inhibitor cocktail (Thermo Scientific)). Lysates were incubated for 10 minutes on ice then mixed gently and incubated for another 10 minutes on ice. Then lysate was centrifuged for 10 minutes at 7000 g at 4° C. 5% of the supernatant was kept for input analysis. Remaining supernatant was divided to three and mixed with 2×binding buffer (100 mM Tris-HCl pH 7.4, 300 mM NaCl, 0.2% NP-40 (v/v), 2 mM sodium orthovanadate, 2 mM sodium fluoride, and protease inhibitor) with 1:1 ratio, incubated with rotation having either of these: a) DMSO, b) biotinylated molecule, c) biotinylated molecule and the competitor for 2 h. During this period NeutrAvidin Agarose resin (Thermo Scientific) was equilibrated with lysis buffer by mixing for 5 minutes via rotation at 4° C. three times. After each mix period, resins were centrifuged at 2500 g at 4° C. for 2 minutes and supernatant was discarded. […] Pulled-down samples were analyzed via western blot.

Cc1c(C(=O)N2CCc3ccccc32)oc2ccc3c(c12)C(=O)CC(C)(c1ccc(Cl)cc1)O3 (centres unmarked) [FORMULA I, 11-(4-chlorophenyl)-4-(2,3-dihydro-1H-indole-1-carbonyl)-3,11-dimethyl-5,10,dioxatricyclo[7.4.0.0,2,6,]trideca-1,3,6,8-tetraen-13-one]
Per2 mRNA level in liver (Per2): significantly increased; also recorded: increased the mRNA level of Per2
physical binding to CRY1 (pull-down) (CRY1): physically binds to CRY1; also recorded: binds to PHR of CRY1
